Assay results published in patent US9233965B2, “3,4-dihydropyrrolo[1,2-A]pyrazine-2,8(1H)-dicarboxamide derivatives, preparation thereof and therapeutic use thereof for diseases involving casein kinase 1 epsilon and/or casein kinase 1 delta” (SANOFI, priority 2010, dated 2016).
“And” between values parts separate entries of the source, which are not always exact repeats. Equal entries are not always repeated.

Legend:
human CK1 delta = human CK1 delta (Homo sapiens (Human), UniProt P48730); experiment: Test B: inhibitory activity on CK1 delta measured by FRET (Z'Lyte kinase assay kit); assay type: biochemical; settings: substrate peptide SER/THR 11 2 μM, ATP 4 times the KM
Description: Test B: Inhibitory Activity on CK1 Delta Measured by FRET
The capacity of the compounds of the invention to inhibit the phosphorylation of casein by the casein kinases 1 epsilon and delta may be evaluated using an FRET (Fluorescence Resonance Energy Transfer) fluorescence test with the aid of the “Z'Lyte™ kinase assay kit” (reference PV3670; Invitrogen Corporation™) according to the manufacturer's instructions.
The casein kinases 1 used are obtained from Invitrogen Corporation (human CK1 epsilon PV3500 and human CK1 delta PV3665).
A peptide substrate labelled at both ends with a fluorophore-donating group (coumarin) and a fluorophore-accepting group (fluorescein) constituting an FRET system is […] in the presence of ATP by casein kinase 1 epsilon or delta in the presence of increasing concentrations of compounds of the invention.
The mixture is treated with a site-specific protease that specifically cleaves the substrate peptide to form two fluorescent fragments having a large fluorescence emission ratio.
The fluorescence observed is thus related to the capacity of the products of the invention to inhibit the phosphorylation of the substrate peptide by casein kinase 1 epsilon or casein kinase 1 delta. […]
The emitted fluorescence is measured at wavelengths of 445 and 520 nm (excitation at 400 nm). […]

[1] = molecular target: casein kinase 1 epsilon (CK1 epsilon) (Homo sapiens (Human), UniProt P49674); experiment: Test A: inhibitory activity on CK1 epsilon, casein phosphorylation assay on ATP-33P filter plate; assay type: biochemical; settings: IC50 values or IC50 ranges (result of several experiments), ATP 10 μM final
Procedure, shortened: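 Human CK1 epsilon (3 ng/μL final) phosphorylates dephosphorylated casein (0.2 μg/μL) with ATP-33P plus 10 μM cold ATP (KM for ATP 21 μM), 2 h at room temperature, pH 7.5 Tris buffer. TCA-precipitated protein counted by scintillation; compounds at 10 to 0.001 μM give IC50 values or % inhibition at 10 μM.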

[2] = test system: Mper1-luc Rat-1 (P2C4) fibroblasts; experiment: Test C: circadian cell assay, mPer1-luciferase reporter period analysis; assay type: cell-based; settings: effective concentration that induces a 1-hour prolongation of the circadian period; values or ranges from several experiments
Method: Test C: Experimental Protocol for Circadian Cell Assay
Mper1-luc Rat-1 (P2C4) fibroblast cultures were prepared by dividing the cultures every 3-4 days (about 10-20% of confluence) on 150 cm^2 degassed polystyrene tissue culture flasks (Falcon® #35-5001) and maintained in growth medium [EMEM (Cellgro #10-010-CV); 10% foetal bovine serum (FBS; Gibco #16000-044); and 50 I.U./mL of penicillin-streptomycin (Cellgro #30-001-Cl)] at 37° C. and under 5% CO2.
Cells obtained from Rat-1 fibroblast cultures at 30-50% of confluence as described above were co-transfected with vectors containing the selection marker for resistance to zeocin for a stable transfection and a luciferase reporter gene directed by the promoter mPer-1. After 24 to 48 hours, the cultures were divided on 96-well plates and maintained in growth medium supplemented with 50-100 μg/mL of zeocin (Invitrogen® #45-0430) for 10-14 days. The zeocin-resistant stable transfectants were evaluated for expression of the reporter by adding to the growth medium luciferin 100 μM (Promega® #E1603®) and by assaying the luciferase activity on a TopCount® scintillation counter (Packard model #C384V00). The Rat-1 cell clones expressing both zeocin resistance and luciferase activity directed by mPer1 were serum-shock-synchronized with 50% horse serum [HS (Gibco® #16050-122)] and the activity of the circadian reporter was evaluated. The P2C4 clone of fibroblasts Mper1-luc Rat-1 was selected to test the compound.
The Mper1-luc Rat-1 (P2C4) fibroblasts at 40-50% of confluence obtained according to the protocol described above were plated out onto 96-well opaque tissue culture plates (Perkin Elmer® #6005680). The cultures are maintained in growth medium supplemented with 100 μg/mL of zeocin (Invitrogen #45-0430) until they reached 100% of confluence (48-72 hours). The cultures were then synchronized with 100 μL of synchronization medium [EMEM (Cellgro #10-010-CV); 100 I.U./mL of penicillin-streptomycin (Cellgro #30-001-C1); 50% HS (Gibco #16050-122)] for 2 hours at 37° C. and under 5% CO2. After synchronization, the cultures were rinsed with 100 μL of EMEM (Cellgro #10-010-CV) for 10 minutes at room temperature. […]
The period analysis was performed either by determining the interval between the relative light emission minima over several days or by Fourier transform. […] The data were analysed by adjusting a hyperbolic curve to the data expressed as change of period (y-axis) as a function of the concentration of the test compound (x-axis) in the XLfit™ software and the EC Delta (t+1 h) was interpolated from this curve. […]

Sequence of casein kinase 1 epsilon (CK1 epsilon) (P49674 whole entry): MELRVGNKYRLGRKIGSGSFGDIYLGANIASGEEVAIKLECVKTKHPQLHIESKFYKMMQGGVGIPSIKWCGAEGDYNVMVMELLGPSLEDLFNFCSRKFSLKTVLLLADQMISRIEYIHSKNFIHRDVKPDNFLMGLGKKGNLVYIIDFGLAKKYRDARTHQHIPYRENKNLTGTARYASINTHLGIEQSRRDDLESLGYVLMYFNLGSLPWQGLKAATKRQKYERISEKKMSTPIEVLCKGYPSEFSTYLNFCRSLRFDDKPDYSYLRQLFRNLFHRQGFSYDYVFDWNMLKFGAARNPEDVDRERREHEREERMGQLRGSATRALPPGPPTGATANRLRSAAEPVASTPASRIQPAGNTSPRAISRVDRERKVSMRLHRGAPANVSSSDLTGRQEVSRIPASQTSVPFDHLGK
Sequence of human CK1 delta (P48730 whole entry): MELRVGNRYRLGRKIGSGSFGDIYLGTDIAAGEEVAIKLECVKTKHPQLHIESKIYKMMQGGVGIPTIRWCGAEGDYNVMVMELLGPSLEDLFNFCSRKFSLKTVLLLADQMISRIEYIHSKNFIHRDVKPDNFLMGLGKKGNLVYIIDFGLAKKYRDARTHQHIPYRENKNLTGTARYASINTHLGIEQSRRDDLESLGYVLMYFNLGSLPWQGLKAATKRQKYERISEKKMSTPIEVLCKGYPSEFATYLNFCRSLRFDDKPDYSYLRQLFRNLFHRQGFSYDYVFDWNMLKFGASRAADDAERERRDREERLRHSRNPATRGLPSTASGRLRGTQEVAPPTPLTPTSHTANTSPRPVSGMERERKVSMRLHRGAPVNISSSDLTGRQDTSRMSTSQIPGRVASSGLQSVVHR

Row | Structure (SMILES) | IC50 (human CK1 delta) [nM] | IC50 [1] [nM] | melting point | CE Delta (t + 1 h) [2] [nM]
1 | CC(C)(C)NC(=O)N1CCn2c(c(C(N)=O)c(-c3ccccc3)c2C2CC2)C1 [Compound 10, N^2-tert-butyl-6-cyclo-propyl-7-phenyl-3,4-dihydropyrrolo[1,2-a]pyrazine-2,8(1H)-dicarboxamide] | 31 | 15 to 77 |  | 
2 | CC(C)(C)NC(=O)N1CCn2c(c(C(N)=O)c(-c3ccc4ccccc4c3)c2C2CC2)C1 [Compound 25, N^2-tert-butyl-6-cyclo-propyl-7-(naphthalen-2-yl)-3,4-dihydropyrrolo[1,2-a]pyrazine-2,8(1H)-dicarboxamide] |  | 33 |  | 26
3 | Cc1c(-c2ccccc2)c(C(N)=O)c2n1CCN(C(=O)NC(C)(C)C)C2 [Compound 3, N^2-tert-butyl-6-methyl-7-phenyl-3,4-dihydropyrrolo[1,2-a]pyrazine-2,8(1H)-dicarboxamide] |  | 5 to 104 |  | 8

Further lines, with some results ahead:

Row | IC50 (human CK1 delta) [nM] | IC50 [1] [nM] | melting point | Structure (SMILES) | CE Delta (t + 1 h) [2] [nM]
4 |  | 1 to 12 | 197 to 199 °C and 192 to 195 °C | CC(C)(C)NC(=O)N1CCn2c(Cl)c(-c3ccccc3)c(C(N)=O)c2C1 [Compound 60, N^2-tert-butyl-6-chloro-7-phenyl-3,4-dihydropyrrolo[1,2-a]pyrazine-2,8(1H)-dicarboxamide] | 3 to 20
5 |  | 6 |  | NC(=O)c1c(-c2ccccc2)c(C2CC2)n2c1CN(C(=O)NC13CC4CC(CC(C4)C1)C3)CC2 [Compound 54, N^2-(adamantan-1-yl)-6-cyclo-propyl-7-phenyl-3,4-dihydropyrrolo[1,2-a]pyrazine-2,8(1H)-dicarboxamide] | 15
